Assay results as given in patent US20060135587A1, “Method and compounds for promoting healing and reducing inflammation” (priority 2002, published 2006).
Marks after values point to notes of the source that are not given here.

Columns and labels:
myocardial infarction = test: Clinical trial in subacute myocardial infarction and cardiac insufficiency (Example 23); type: in vivo, human
Method: A clinical trial of Compound 2 was carried out on 100 patients aged from 25 to 75 years during the subacute period of myocardial infarction. Each patient continued to receive the treatment which s/he had been given prior to commencement of the trial. Compound 2 was administered in addition to the previous treatment. A control group received conventional treatment, ie. nitrate, anticoagulants and/or hypotensive agents as appropriate. The results of treatment of these two groups were compared with groups of patients receiving riboxine and placebo. Compound 2 was administered over a period of three weeks from the 7th to 28th days following infarction, and was administered orally at a dose of three 0.2 g tablets per day.
The effects of treatment were monitored by 12-lead electrocardiography, using the QRS Scoring System. Haemodynamic parameters and the contractile function of the myocardium were monitored using a Toshiba ultrasound camera model SSH-60A, using conventional methods.
The effect of Compound 2 was also studied in 25 patients aged 43 to 66 years suffering from cardiac insufficiency, in comparison with riboxine or a placebo.

[1] = test system: aseptic full-thickness skin wounds; test: Healing of aseptic full-thickness skin wounds in rats, topical treatment; type: in vivo
Text: To heal successfully, wounds should be treated with regard to specific features of the various stages of healing process of the wound (Kuzin et al, 1981). The wound-healing effect of salts of N-substituted 1,3-dialkyl-4,5-bis(carbamoyl)imidazolium derivatives was studied in a model of aseptic full-thickness skin wounds in rats (Zapadnyuk et al, 1983). The effect of 10% 1-ethyl-3-methyl-4,5-bis(N-methylcarbamoyl)imidazolium benzensulfonate in a lanolin ointment base was compared to that of Solcoseryl gel and Spasatel balm.
Aseptic full-thickness skin wounds were created in rats under light ether anaesthesia. At a site on the animal's back where the animal could not lick the wound, the skin was shaved, and a circular piece of skin approximately 2.5 cm^2 area was excised with scissors. Following recovery from anaesthesia the animals were kept in separate cages, with normal food and water ad libitum. A total of 100 rats weighing from 200 to 250 g were used, with 20 rats in each group. The groups were as follows:
Treatment was performed 24 hours after the wounding by applying […] once a day in a proportion of 80 mg of ointment per 1 cm^2 of the wound area (8 mg of substance per 1 cm^2) and then daily until healing was complete.
Animals were examined at 5, 10, 15 and 20 days for the following parameters; wound size and wound healing time; weight gain, peripheral blood indicators (total leucocyte count, differential leucocyte count, and erythrocyte sedimentation rate); and biochemical serum indicators (total protein, albumin, globulin, and globulin fractions); and macroscopic and microscopic assessment of wounds. The average complete wound healing period was 16.8±1.9 days for Compound 2, compared to 23.5±2.2 days for Spasatel and 24.0±2.4 days for Solcoseryl.
For measurement of wound size, a sterile object plate was laid over the wound, and its contour was outlined with a marker. The wounds were photographed, the wound outlines were scanned, and their area was calculated using an in-house computer program.

wounds = test: Treatment of wounds in human patients; type: in vivo
Method: The effect of Compound 2 on the healing of different types of wounds was tested in human patients. A powder, solution or ointment of the substance containing the active agent in a proportion of 5% to 95% was applied to the wound. In all cases the wounds healed rapidly without infection or scarring.

mice, rats, dogs = test: Chronic toxicity studies over six months; type: in vivo; conditions: mice and rats 40 mg/kg per day subcutaneously, dogs 10 or 40 mg/kg per day orally
Method: No effect on body weight, weight of internal organs, structure or function of internal organs or blood indicators was observed. These studies were performed in mice (40 mg/kg per day, given subcutaneously), in rats (40 mg/kg per day, given subcutaneously) and in dogs (10 mg/kg or 40 mg/kg per day, given orally).

CC[n+]1cn(C)c(C(=O)NC)c1C(=O)NC.O=S(=O)([O-])c1ccccc1 [Compound 2, 1-methyl-3-ethyl-4,5-bis(N-methylcarbamoyl)-imidazolium benzenesulfonate]
side effects (myocardial infarction; both patient groups): No side effects were observed in either group | recovery of the contractile function of the myocardium versus placebo or riboxine (myocardial infarction; myocardial infarction patients, three 0.2 g tablets per day orally, 7th to 28th day): recovery of the contractile function of the myocardium was more rapid | progression of cardiac insufficiency (myocardial infarction; patients suffering from cardiac insufficiency): prevented the progression of the condition | Wound area (% of area before treatment) ([1]; 5th day, topical, test compound as 10% ointment): 84.0% | wound area on the fifteenth day ([1]; 10% Compound 2 ointment): 0.4% | Wound area (% of area before treatment) ([1]; 10th day, topical, test compound as 10% ointment): 8.1% | Wound area (% of area before treatment) ([1]; 15th day, topical, test compound as 10% ointment): 0.4% | Wound area (% of area before treatment) ([1]; 20th day, topical, test compound as 10% ointment): 0.1% | Epithelialization (duration in days) ([1]; Table 8, topical once a day, Compound 2 as 10% ointment in lanolin): 16.8 ± 1.9*^.** days | Epithelialization period ([1]; Table 10, topical, test compound as 10% ointment): 16.8 ± 1.9 | average complete wound healing period ([1]; text b167): 16.8 ± 1.9 days | wound outcome (wounds; Patient A, incisional wound 5 cm, 10% ointment in lanolin daily for 5 days, at 17 days): there was no scar, and the skin had fully recovered | wound outcome (wounds; Patient B, bed sores on the thigh, 0.5 g finely dispersed powder daily for 5 days, at 16 days): there was no scar, and the skin had fully recovered | wound outcome (wounds; Patient C, second degree thermal burn, 10% sterile aqueous solution, at 16 days): complete recovery of the skin, without scars | wound outcome (wounds; Patient D, abrasion of the left leg, 0.5 g powder mixed with equal amount of talc, at 12 days): the skin had healed completely | wound outcome (wounds; Patient E, erosion of the uterine cervix, 10% ointment on a tampon daily for two weeks, colposcopy at 18 days): the epithelium of the mucous membrane of the uterine cervix had fully recovered | chronic toxicity findings (mice, rats, dogs): had no irritating or allergic action, does not act on the central nervous system, and has no teratogenic, mutagenic or carcinogenic immunosuppressive activity
